Test results published in PubChem BioAssay AID1278 (The Scripps Research Institute Molecular Screening Center, 2008).
Activity calls are given as the source filed them. The rule behind the calls is not given here.

Biological target: Neuropeptide Y receptor type 2 (Homo sapiens) (UniProt P49146)
Test: IC50 for human NPY-Y2 blockade – cell-based, counter-screen for NPY-Y1 antagonist project, dose response (AID 1278)
Conditions: NPY-Y2 expressing cells, antagonism, cell-based HTS

Neuropeptide Y receptor type 2 (Homo sapiens), sequence (P49146 whole entry, looked up): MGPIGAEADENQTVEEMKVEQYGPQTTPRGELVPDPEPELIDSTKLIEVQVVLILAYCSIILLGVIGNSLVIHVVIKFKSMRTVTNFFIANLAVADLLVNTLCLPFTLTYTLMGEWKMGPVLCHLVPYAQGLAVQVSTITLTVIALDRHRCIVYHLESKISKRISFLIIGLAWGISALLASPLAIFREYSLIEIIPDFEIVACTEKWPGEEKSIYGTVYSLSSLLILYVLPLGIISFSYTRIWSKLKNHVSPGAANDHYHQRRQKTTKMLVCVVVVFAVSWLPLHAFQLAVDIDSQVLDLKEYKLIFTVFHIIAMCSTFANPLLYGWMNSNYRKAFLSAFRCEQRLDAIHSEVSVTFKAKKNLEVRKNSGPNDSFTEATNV

IC50: < 35 µM (inactive)
Compound: CCc1cc(-c2[nH]ncc2-c2ccc3c(c2)OCO3)c(O)cc1O
